Data published in ChEMBL document CHEMBL1166016, “Design, synthesis, and biological evaluation of novel coxsackievirus B3 inhibitors” (Bioorg Med Chem, 2010).
pEC50: −log10 of the molar value.

Experiments:
[1] = Cytotoxicity against african green monkey Vero cells after 3 days by MTS assay; assay type: cell-based; conditions: chlorocebus sabaeus
Coxsackievirus B3 = experiment: Antiviral activity against Coxsackievirus B3 infected in african green monkey […] assessed as inhibition of virus-induced cytopathic effect after 3 days by MTS assay; assay type: functional, organism-based; conditions: for pEC50: Enterovirus B, 72 h

Compound	CC50 at 72 h [1] [µM]	pEC50 (Coxsackievirus B3)	EC90 (Coxsackievirus B3) [µM]
OCC1CC2CC1C(n1cnc3c(Cl)ncnc31)C2 (stereo not drawn)	> 50	6.01	
OCC1C2COC3C2OC1C3n1cnc2c(Cl)ncnc21 (stereo not drawn)	> 50	5.73	
C[C@@H](NC(=O)c1cccc(-c2cnc(-c3cc4ccccc4cn3)[nH]2)c1)c1ccc(F)cc1	> 50	5.92	
ClCC1C2COC3C2CC1C3n1cnc2c(Cl)ncnc21 (stereo not drawn)	> 50	6.00	
ClCC1C2COC3C2OC1C3n1cnc2c(Cl)ncnc21 (stereo not drawn)	> 50	6.06	
OCC1C2COC3C2CC1C3n1cnc2c(Cl)ncnc21 (stereo not drawn)	> 50	5.95	
OCC1CC2CC1CC2n1cnc2c(Cl)ncnc21 (stereo not drawn)	> 50	6.04	
Clc1ncnc2c1ncn2[C@@H]1CC2CC1[C@@H](n1cnc3c(Cl)ncnc31)C2	> 50	5.11	
Clc1ncnc2c1ncn2C[C@@H]1C[C@H]2CC[C@@H]1C2 (relative stereo)	> 50	5.42	9.43
Clc1ncnc2c1ncn2[C@@H]1C[C@@H]2C[C@H]1[C@@H]1O[C@@H]21 (relative stereo)	> 50	5.99	3.46
O[C@H]1C[C@H]2C[C@@H]1C[C@@H]2n1cnc2c(Cl)ncnc21 (relative stereo)	> 50	5.61	
Clc1ncnc2c1ncn2[C@H]1C[C@H]2C[C@@H]1C[C@@H]2n1cnc2c(Cl)ncnc21 (relative stereo)	> 50	4.65	
Clc1ncnc2c1ncn2[C@H]1C[C@H]2C[C@@H]1c1ccccc12 (relative stereo)	> 50	6.18	>50
Clc1ncnc2c1ncn2[C@H]1C[C@H]2C[C@@H]1c1cc3ccccc3cc12 (relative stereo)	> 50	< 4.30	>50
Clc1ncnc2c1ncn2[C@H]1C2C3C[C@H]1C[C@H]32 (relative stereo)	43.9	5.82	
Clc1ncnc2c1ncn2[C@H]1C[C@H]2C[C@@H]1C[C@@H]2c1ccccc1 (relative stereo)	17	5.24	
Clc1ncnc2c1ncn2C[C@H]1C[C@@H]2C=C[C@H]1C2 (relative stereo)	> 50	5.45	8.49

Compound	CC50 at 72 h [1] [µM]	pEC50 (Coxsackievirus B3)	EC90 (Coxsackievirus B3) [µM]
CC1(C)[C@@H]2CC[C@@]1(C)[C@H](n1cnc3c(Cl)ncnc31)C2 (relative stereo)	> 50	5.46	36.26
CC1(C)[C@H]2CC[C@H](C2)[C@@H]1n1cnc2c(Cl)ncnc21 (relative stereo)	> 50	4.96	>50
Clc1ncnc2c1ncn2[C@H]1C[C@@H]2C=C[C@H]1C2 (relative stereo)	> 50	5.61	5.87
F[C@H]1C[C@H]2C[C@@H]1C[C@@H]2n1cnc2c(Cl)ncnc21 (relative stereo)	> 50	6.02	1.96
O=C1C[C@@H]2C[C@H]1[C@H](n1cnc3c(Cl)ncnc31)C2 (relative stereo)	> 50	5.80	
O[C@@H]1C[C@H]2C[C@@H]1[C@H](n1cnc3c(Cl)ncnc31)C2 (relative stereo)	> 50	5.89	
FC1(F)C[C@@H]2C[C@@H](n3cnc4c(Cl)ncnc43)[C@H]1C2 (relative stereo)	> 50	5.94	34.4
Clc1ncnc2c1ncn2[C@H]1[C@@H]2C[C@@H]3CO[C@H]1[C@H]3C2 (relative stereo)	> 50	5.90	
O[C@@H]1[C@@H]2C[C@H]([C@@H]1O)[C@@H](n1cnc3c(Cl)ncnc31)C2 (relative stereo)	> 50	5.65	36.52
O[C@@H]1C[C@H]2C[C@@H]1[C@@H](n1cnc3c(Cl)ncnc31)C2 (relative stereo)	47.9	5.96	
Clc1ncnc2c1ncn2[C@H]1C[C@H]2C[C@@H]1[C@H](c1ccccc1)C2 (relative stereo)	13.4	5.53	
Clc1ncnc2c1ncn2[C@H]1C[C@H]2C[C@@H]1[C@@H]1CCC[C@H]21 (relative stereo)	43.4	5.72	
Clc1ncnc2c1ncn2[C@@H]1[C@@H]2C[C@@H]3[C@H]1CO[C@@H]3C2 (relative stereo)	> 50	6.00	
O=C1C[C@H]2C[C@@H]1C[C@@H]2n1cnc2c(Cl)ncnc21 (relative stereo)	> 50	6.05	1.78
O[C@H]1C[C@@H]2C[C@@H]1C[C@H]2n1cnc2c(Cl)ncnc21 (relative stereo)	> 50	5.98	
FC1(F)C[C@H]2C[C@H]1C[C@@H]2n1cnc2c(Cl)ncnc21 (relative stereo)	> 50	6.00	
